Test results from patent US8912120B2, “Herbicidal compositions comprising 4-amino-3-chloro-5-fluoro-6-(4-chloro-2-fluoro-3-methoxyphenyl) pyridine-2-carboxylic acid or a derivative thereof and synthetic auxin herbicides” (Dow AgroSciences, LLC., priority 2012, dated 2014).
Counter-ions that a name gives are not always drawn.

Columns and labels:
POLCO = test: Example IV: postemergence foliar-applied herbicidal mixtures, cereal crops, POLCO; type: in vivo, Polygonum convolvulus (wild buckwheat); settings: alone, foliar, 20-22 days
Protocol: (§1) Seeds of the desired test plant species were planted in Sun Gro MetroMix 306 planting mixture, which typically has a pH of 6.0 to 6.8 and an organic matter content of about 30 percent, in plastic pots with a surface area of 103.2 square centimeters (cm^2). […] The plants were grown for 7-36 days in a greenhouse with an approximate 14 hour photoperiod which was maintained at about 18° C. during the day and 17° C. during the night.
(§2) Spray solutions of the second cereal herbicide and experimental compound mixtures were prepared by adding the stock solutions to the appropriate amount of dilution solution to form 12 mL spray solution with active ingredients in two- and three-way combinations.

CIRAR = test: Example IV: postemergence foliar-applied herbicidal mixtures, cereal crops, CIRAR; type: in vivo, Cirsium arvense (Canada thistle); settings: alone, 20-22 days
Protocol: as §1, §2

VIOTR = test: Example IV: postemergence foliar-applied herbicidal mixtures, cereal crops, VIOTR; type: in vivo, Viola tricolor (wild pansy); settings: alone, foliar, 20-22 days
Protocol: as §1, §2

AMARE = test: Example IV: postemergence foliar-applied herbicidal mixtures, weed control in cereal crops in the greenhouse, AMARE; type: in vivo, Amaranthus retroflexus (redroot pigweed); settings: alone, 35 gai/ha, 20-22 days
Protocol: as §1, §2

STEME = test: Example IV: postemergence foliar-applied herbicidal mixtures, cereal crops, STEME; type: in vivo, Stellaria media (common chickweed); settings: alone, 10 gai/ha, 20-22 days
Protocol: as §1, §2

ELEIN = test: Example III: postemergence foliar-applied herbicidal mixtures, weeds common to row crops such as corn and soybeans (greenhouse), ELEIN; type: in vivo, Eleusine indica (goosegrass); settings: 14 DAA
Protocol: (§3) The plants were grown for 7-31 days (d) in a greenhouse with an approximate 15 hour (h) photoperiod which was maintained at about 23-29° C. during the day and 22-28° C. during the night.

ECHCG = test: Example II: in-water applied herbicidal mixtures, transplanted paddy rice, ECHCG; type: in vivo, Echinochloa crus-galli (barnyardgrass); settings: for Visual Weed Control (%) - 21 DAA ECHCG Obs: in-water application; for Visual Weed Control (%) Obs: 22 DAA
Protocol: (§4) The prepared mud was dispensed in 365 mL aliquots into 16-ounce (oz.) non-perforated plastic pots with a surface area of 86.59 square centimeters (cm^2) leaving a headspace of 3 centimeters (cm) in each pot Mud was allowed to dry overnight prior to planting or transplanting. Rice seeds were planted in Sun Gro MetroMix® 306 planting mixture, which typically has a pH of 6.0 to 6.8 and an organic matter content of about 30 percent, in plastic plug trays. Seedlings at the second or third leaf stage of growth were transplanted into 840 mL of mud contained in 32-oz. non-perforated plastic pots with a surface area of 86.59 cm^2 4 days prior to herbicide application. […] Nutrients were added as Osmocote® (19:6:12, N:P:K^+ minor nutrients) at 2 g per 16-oz. pot and 4 g per 32-oz. pot.
(§5) Applications were made by injecting with a pipetter appropriate amounts of the application solutions, individually and sequentially, into the aqueous layer of the paddy. Control plants were treated in the same manner with the solvent blank. Applications were made so that all treated plant material received the same concentrations of acetone and crop oil concentrate.

ECHOR = test: Example II: in-water applied herbicidal mixtures, transplanted paddy rice, ECHOR; type: in vivo, Echinochloa oryzoides (early watergrass)
Protocol: as §4, §5

SINAR = test: Example V: postemergence herbicidal activity of mixtures in forage crops, SINAR; type: in vivo, Sinapis arvensis (wild mustard); settings: alone, foliar, approximately 21 days
Protocol: as §1, with “Seeds or root cuttings” for “Seeds”, “MetroMix®” for “MetroMix”, “126.6” for “103.2”, “14-60” for “7-36”, “approximately 28°” for “about 18°”, “24°” for “17°”
(§6) Spray solutions of the second herbicide or experimental compound mixtures were prepared by adding the stock solutions to the appropriate amount of dilution solution to form 12 mL spray solution with active ingredients in two-way combinations.

SCPJU = test: Example II: in-water applied herbicidal mixtures, transplanted paddy rice, SCPJU; type: in vivo, Schoenoplectus juncoides (Japanese bulrush); settings: for Visual Weed Control (%) - 21 DAA SCPJU Obs: in-water application; for Visual Weed Control (%) Obs: 22 DAA
Protocol: as §4, §5

LEFCH = test: Example II: in-water applied herbicidal mixtures, transplanted paddy rice, LEFCH; type: in vivo, Leptochloa chinensis (Chinese sprangletop); settings: for Visual Weed Control (%) - 21 DAA LEFCH Obs: in-water application; for Visual Weed Control (%) Obs: 22 DAA
Protocol: as §4, §5

PANMI = test: Example III: postemergence foliar-applied herbicidal mixtures, row crop weeds, PANMI; type: in vivo, Panicum miliaceum (wild-proso millet); settings: 16 DAA
Protocol: as §3

PANDI = test: Example III: postemergence foliar-applied herbicidal mixtures, row crop weeds, PANDI; type: in vivo, Panicum dichotomiflorum (fall panicum); settings: 16 DAA
Protocol: as §3

CENMA = test: Example V: postemergence herbicidal activity of mixtures in forage crops, CENMA; type: in vivo, Centaurea maculosa (spotted knapweed); settings: alone, foliar, approximately 21 days
Protocol: as §1, with “Seeds or root cuttings” for “Seeds”, “MetroMix®” for “MetroMix”, “126.6” for “103.2”, “14-60” for “7-36”, “approximately 28°” for “about 18°”, “24°” for “17°”
as §6

CYPRO = test: Example II: in-water applied herbicidal mixtures, weed control in transplanted paddy rice (greenhouse), CYPRO; type: in vivo, Cyperus rotundus (purple nutsedge); settings: for Visual Weed Control (%) Obs: 22 DAA
Protocol: as §4, §5

SONAR = test: Example V: postemergence herbicidal activity of mixtures in forage crops, SONAR; type: in vivo, Sonchus arvensis (field sowthistle); settings: alone, foliar, approximately 21 days
Protocol: as §1, with “Seeds or root cuttings” for “Seeds”, “MetroMix®” for “MetroMix”, “126.6” for “103.2”, “14-60” for “7-36”, “approximately 28°” for “about 18°”, “24°” for “17°”
as §6

FIMMI = test: Example II: in-water applied herbicidal mixtures, transplanted paddy rice, FIMMI; type: in vivo, Fimbristylis miliacea (globe fringerush); settings: 22 DAA
Protocol: as §4, §5

BRSNN = test: Example IV: postemergence foliar-applied herbicidal mixtures, cereal crops, BRSNN; type: in vivo, Brassica napus (volunteer canola); settings: alone, 3 gai/ha, foliar, 20-22 days
Protocol: as §1, §2

[1] = 280 gae/ha, in-water application

## Nc1c(Cl)c(F)nc(OCC(=O)O)c1Cl [Fluroxypyr, 2-[(4-amino-3,5-dichloro-6-fluoro-2-pyridinyl)oxy]acetic acid]
POLCO; 35 gai/ha
  POLCO Ob (observed value): 23%
CIRAR; 35 gai/ha
  CIRAR Ob (observed value): 3%
VIOTR; 35 gai/ha
  VIOTR Ob (observed value): 10%
AMARE
  AMARE Ob (observed value): 33%

## Nc1c(Cl)c(Cl)nc(C(=O)O)c1Cl [Picloram, 4-amino-3,5,6-trichloro-2-pyridinecarboxylic acid]
POLCO; 10 gai/ha
  POLCO Ob (observed value): 40%
VIOTR; 10 gai/ha
  VIOTR Ob (observed value): 3%
STEME
  STEME Ob (observed value): 0%

## O=C(O)COc1ccc(Cl)cc1Cl [2,4-D DMA Salt, 2-(2,4-dichlorophenoxy)acetic acid with N-methylmethanamine, reference compound]
ELEIN; 52.5 gae/ha
  Visual Weed Control (%) Obs: 0%
ELEIN; 105 gae/ha
  Visual Weed Control (%) Obs: 0%
ECHCG; 140 gae/ha
  Visual Weed Control (%) - 21 DAA ECHCG Obs: 0%
ECHCG; 280 gae/ha
  Visual Weed Control (%) - 21 DAA ECHCG Obs: 0%
ECHOR; [1]
  Visual Weed Control (%) - 21 DAA ECHOR Obs: 15%
SINAR; 35 gae/ha
  SINAR Obs (observed value): 35%
SINAR; 70 gae/ha
  SINAR Obs (observed value): 80%
SCPJU; 140 gae/ha
  Visual Weed Control (%) - 21 DAA SCPJU Obs: 0%
SCPJU; 280 gae/ha
  Visual Weed Control (%) - 21 DAA SCPJU Obs: 0%
LEFCH; 140 gae/ha
  Visual Weed Control (%) - 21 DAA LEFCH Obs: 0%
LEFCH; 280 gae/ha
  Visual Weed Control (%) - 21 DAA LEFCH Obs: 60%
PANMI; 52.5 gae/ha
  Visual Weed Control (%) Obs: 0%
PANMI; 105 gae/ha
  Visual Weed Control (%) Obs: 10%
PANDI; 105 gae/ha
  Visual Weed Control (%) Obs: 0%
PANDI; 210 gae/ha
  Visual Weed Control (%) Obs: 0%
CENMA; 35 gae/ha
  CENMA Obs (observed value): 30%
CENMA; 70 gae/ha
  CENMA Obs (observed value): 50%
CYPRO; [1]
  Visual Weed Control (%) - 21 DAA CYPRO Obs: 0%
SONAR; 35 gae/ha
  SONAR Obs (observed value): 20%
SONAR; 70 gae/ha
  SONAR Obs (observed value): 85%

## O=C(O)COc1nc(Cl)c(Cl)cc1Cl [Triclopyr Choline Salt, 2-hydroxy-N,N,N-trimethylethanaminium 2-((3,5,6-trichloropyridin-2-yl)oxy)acetate, reference compound]
ECHCG; 70 gae/ha
  Visual Weed Control (%) Obs: 15%
ECHCG; 140 gae/ha
  Visual Weed Control (%) Obs: 20%
ECHOR; Echinochloa oryzoides, 528 h, 22 DAA, 70 gae/ha, read-out: Visual Weed Control (%) Obs
  pest or weed control at 70 g/ha: 10%
ECHOR; Echinochloa oryzoides, 528 h, 22 DAA, 140 gae/ha, read-out: Visual Weed Control (%) Obs
  pest or weed control at 140 g/ha: 15%
FIMMI; 70 gae/ha
  Visual Weed Control (%) Obs: 15%
FIMMI; 140 gae/ha
  Visual Weed Control (%) Obs: 80%
SCPJU; 70 gae/ha
  Visual Weed Control (%) Obs: 15%
SCPJU; 140 gae/ha
  Visual Weed Control (%) Obs: 50%
LEFCH; 70 gae/ha
  Visual Weed Control (%) Obs: 0%
LEFCH; 140 gae/ha
  Visual Weed Control (%) Obs: 0%
CYPRO; 70 gae/ha
  Visual Weed Control (%) Obs: 0%
CYPRO; 140 gae/ha
  Visual Weed Control (%) Obs: 0%

## Nc1cc(Cl)nc(C(=O)O)c1Cl [Aminopyralid, 4-amino-3,6-dichloro-2-pyridinecarboxylic acid]
POLCO; 3 gai/ha
  POLCO Ob (observed value): 3%
CIRAR; 3 gai/ha
  CIRAR Ob (observed value): 13%
BRSNN
  BRSNN Ob (observed value): 0%
